Data from ChEMBL document CHEMBL1201862, “PubChem BioAssay data set” (2004).
Calls of active or inactive are those of the source.

Columns and labels:
[1] = THP-1 cell cytotoxicity, dose response, cytotoxicity control for non-replicating M. tuberculosis project (AID 489025); assay type: functional
[2] = cells; assay type: functional
[3] = target: Melanocortin receptor 4 (Homo sapiens, UniProt P32245); assay: MC4R antagonist potency on cAMP, dose response, cell-based, TR-FRET, biased antagonists (AID 602298); assay type: functional;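 note: antagonist potency against agonist-stimulated cAMP production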
[4] = nonselective inhibitors of cellular cAMP signaling, dose response, counter-screen for MC4R biased antagonist project, cell-based, TR-FRET cAMP detection (AID 602305); assay type: functional;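 note: U2OS cells stimulated with forskolin near its EC80 as the cAMP inducer; potency is for inhibition of forskolin-stimulated cAMP signaling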
[5] = target: T1, RNA-binding protein pos-1 (Caenorhabditis elegans, UniProt G5EF15); assay: inhibitors of POS-1/mex-3 RNA binding, dose response, biochemical, fluorescence polarization (AID 1964);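 note: purified POS-1 fused to maltose binding protein made in E. coli; potency of compounds blocking POS-1 binding to fluorescent RNA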
T1 sequence (G5EF15 whole entry): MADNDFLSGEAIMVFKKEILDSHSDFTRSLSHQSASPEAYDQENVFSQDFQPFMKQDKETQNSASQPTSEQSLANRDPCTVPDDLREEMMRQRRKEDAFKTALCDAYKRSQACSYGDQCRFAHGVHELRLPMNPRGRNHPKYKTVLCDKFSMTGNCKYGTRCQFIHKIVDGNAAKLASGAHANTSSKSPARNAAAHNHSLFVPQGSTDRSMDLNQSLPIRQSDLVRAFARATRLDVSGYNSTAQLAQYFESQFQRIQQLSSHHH

[6] = target: Glucose-6-phosphate 1-dehydrogenase (Homo sapiens, UniProt P11413); assay: human G6PD enzyme inhibitors, dose response, selectivity assay for P. falciparum G6PD inhibitor project, biochemical, fluorescence (AID 504792); assay type: functional
[7] = Luminescence Cell-Based Dose Confirmation HTS to Identify Inhibitors of Platelet Dense Granule Release. [Related pubchem assays: 1663 (Primary HTS), 1678 (Summary of Project)]; assay type: functional
[8] = Luminescence Cell-Based Dose Response HTS to Identify Inhibitors of 5'UTR Stem-Loop Driven Prion Protein mRNA Translation in H4 Neuroglioblastoma Cells. [Related pubchem assays: 1827 (Project Summary), 1813 (Primary HTS)]; assay type: functional
[9] = inhibitors of SNCA 5'UTR-driven reporter translation, confirmation, H4 neuroglioma cells, luminescence (AID 1988); assay type: functional, cell-based
[10] = target: Luciferin 4-monooxygenase (Photinus pyralis, UniProt P08659); assay: firefly luciferase enzyme inhibitors, dose response, biochemical, luminescence (AID 1891)
[11] = tested on: BJ; assay: cytotoxicity toward Ras-transformed BJeLR fibroblasts, dose response, cell-based, alamar blue fluorescence, cherrypicked samples (AID 2631); assay type: functional; settings: Homo sapiens;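 note: confirmatory dose-response assay in RAS-dependent BJ fibroblasts engineered with TERT, LT and ST, with cytotoxicity read by fluorescence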
[12] = target: T2, Zinc finger protein mex-5 (Caenorhabditis elegans, UniProt Q9XUB2); assay: MEX-5/TCR-2 RNA interaction inhibitors, dose response, biochemical, C. elegans, fluorescence polarization (AID 1960)
T2 sequence (Q9XUB2 whole entry): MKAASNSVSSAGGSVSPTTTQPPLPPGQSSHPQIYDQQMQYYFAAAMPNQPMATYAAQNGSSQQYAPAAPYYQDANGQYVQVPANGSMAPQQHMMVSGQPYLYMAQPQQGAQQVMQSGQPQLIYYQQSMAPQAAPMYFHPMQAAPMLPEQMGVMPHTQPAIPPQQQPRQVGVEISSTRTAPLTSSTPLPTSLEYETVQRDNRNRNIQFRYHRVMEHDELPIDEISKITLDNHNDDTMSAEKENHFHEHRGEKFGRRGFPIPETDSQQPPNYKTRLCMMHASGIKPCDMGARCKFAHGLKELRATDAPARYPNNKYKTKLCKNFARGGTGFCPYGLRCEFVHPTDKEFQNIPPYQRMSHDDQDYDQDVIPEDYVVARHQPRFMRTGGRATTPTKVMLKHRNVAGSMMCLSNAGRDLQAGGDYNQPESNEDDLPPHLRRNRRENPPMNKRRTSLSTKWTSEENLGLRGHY

[13] = tested on: Vero; assay: cells; assay type: functional; settings: Chlorocebus sabaeus
[14] = tested on: BJ; assay: cytotoxicity toward BJ-TERT-LT-ST fibroblasts, dose response, cell-based, RAS-independent, luminescence (AID 1935); assay type: functional; settings: Homo sapiens;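 note: BJ fibroblasts immortalized with TERT plus LT and ST oncogenes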
[15] = cytotoxicity toward DRD oncogenic fibroblasts, dose response, cell-based, non-viral oncogenic, luminescence (AID 1934); assay type: functional; settings: Homo sapiens
[16] = tested on: BJ; assay: cytotoxicity toward BJ-TERT fibroblasts, dose response, cell-based, RAS-independent, luminescence (AID 1933); assay type: functional; settings: Homo sapiens
[17] = tested on: INS1; assay: beta cell apoptosis inhibitors, cytokine rescue, dose response, luminescence, retest (AID 449756); assay type: functional, cell-based; settings: Rattus norvegicus;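 note: cell death triggered by IL-1 beta plus TNF-alpha plus IFN-gamma mixture; protective hits raise ATP signal compared with cytokine alone wells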
[18] = tested on: BJ; assay: cells; assay type: functional, cell-based; settings: Homo sapiens
[19] = target: Protein Wnt-3a (Mus musculus, UniProt P27467); assay: Wnt3a-driven reporter signaling inhibition, dose response, selectivity assay for Gli-SUFU antagonist project, Wnt-LIGHT cells, luminescence (AID 651570); assay type: functional; settings: read-out: IC50_Mean;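 note: Wnt-LIGHT reporter cells stimulated with conditioned medium from Wnt3a-producing cells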
[20] = target: T3, E3 ubiquitin-protein ligase XIAP (Homo sapiens, UniProt P98170); assay: Counter Screen using XIAP-Bir3 for Chemical Antagonists of Bir1/2 domains of IAP-family anti-apoptotic proteins. [Related pubchem assays (depositor defined):AID1018, AID1449, AID1514, AID1638, AID1749, AID1750, AID488957, AID488963]
[21] = target: T3, E3 ubiquitin-protein ligase XIAP; assay: XIAP antagonists, biochemical, IAP family, fluorescence polarization (AID 1018); assay type: functional
[22] = target: Dual specificity tyrosine-phosphorylation-regulated kinase 1A (Rattus norvegicus, UniProt Q63470); assay type: biochemical, Homo sapiens
[23] = target: FAD-linked sulfhydryl oxidase ALR (Homo sapiens, UniProt P55789); assay: inhibitors of human ALR sulfhydryl oxidase, dose response, biochemical, H2O2 detection, luminescence, cherry-pick (AID 493248)
[24] = target: T4, Rac GTPase-activating protein 1 (Homo sapiens, UniProt Q9H0H5); assay: MgcRacGAP GTPase-activating activity inhibitors, confirmation, biochemical, ADP Hunter fluorescence, primary and confirmatory (AID 624330); assay type: functional
T4 sequence (Q9H0H5 whole entry): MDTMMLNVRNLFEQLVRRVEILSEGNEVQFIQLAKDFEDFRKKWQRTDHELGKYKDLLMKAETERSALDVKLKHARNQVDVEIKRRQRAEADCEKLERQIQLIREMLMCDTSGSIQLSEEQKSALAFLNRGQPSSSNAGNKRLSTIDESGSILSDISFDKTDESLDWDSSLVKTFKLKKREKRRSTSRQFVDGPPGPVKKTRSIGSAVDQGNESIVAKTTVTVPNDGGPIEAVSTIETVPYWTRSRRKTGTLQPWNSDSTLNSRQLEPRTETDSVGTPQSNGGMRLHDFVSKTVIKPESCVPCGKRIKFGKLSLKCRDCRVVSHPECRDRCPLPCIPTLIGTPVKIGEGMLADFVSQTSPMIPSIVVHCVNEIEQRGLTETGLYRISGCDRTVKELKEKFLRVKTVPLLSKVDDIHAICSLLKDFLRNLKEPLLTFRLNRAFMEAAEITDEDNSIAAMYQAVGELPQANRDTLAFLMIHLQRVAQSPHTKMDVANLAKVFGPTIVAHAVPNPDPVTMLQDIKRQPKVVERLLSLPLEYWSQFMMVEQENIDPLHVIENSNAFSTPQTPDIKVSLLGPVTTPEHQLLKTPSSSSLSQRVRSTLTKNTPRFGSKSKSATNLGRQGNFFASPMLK

[25] = target: T5, Short transient receptor potential channel 4 (Mus musculus, UniProt Q9QUQ5); assay: mouse TRPC4 channel inhibitors, dose response, cell-based, HEK293 TRPC4/mu-opioid, Fluo-4 calcium (AID 434942); assay type: functional;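 note: potency of inhibitors blocking the TRPC4 calcium response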
T5 sequence (Q9QUQ5 whole entry): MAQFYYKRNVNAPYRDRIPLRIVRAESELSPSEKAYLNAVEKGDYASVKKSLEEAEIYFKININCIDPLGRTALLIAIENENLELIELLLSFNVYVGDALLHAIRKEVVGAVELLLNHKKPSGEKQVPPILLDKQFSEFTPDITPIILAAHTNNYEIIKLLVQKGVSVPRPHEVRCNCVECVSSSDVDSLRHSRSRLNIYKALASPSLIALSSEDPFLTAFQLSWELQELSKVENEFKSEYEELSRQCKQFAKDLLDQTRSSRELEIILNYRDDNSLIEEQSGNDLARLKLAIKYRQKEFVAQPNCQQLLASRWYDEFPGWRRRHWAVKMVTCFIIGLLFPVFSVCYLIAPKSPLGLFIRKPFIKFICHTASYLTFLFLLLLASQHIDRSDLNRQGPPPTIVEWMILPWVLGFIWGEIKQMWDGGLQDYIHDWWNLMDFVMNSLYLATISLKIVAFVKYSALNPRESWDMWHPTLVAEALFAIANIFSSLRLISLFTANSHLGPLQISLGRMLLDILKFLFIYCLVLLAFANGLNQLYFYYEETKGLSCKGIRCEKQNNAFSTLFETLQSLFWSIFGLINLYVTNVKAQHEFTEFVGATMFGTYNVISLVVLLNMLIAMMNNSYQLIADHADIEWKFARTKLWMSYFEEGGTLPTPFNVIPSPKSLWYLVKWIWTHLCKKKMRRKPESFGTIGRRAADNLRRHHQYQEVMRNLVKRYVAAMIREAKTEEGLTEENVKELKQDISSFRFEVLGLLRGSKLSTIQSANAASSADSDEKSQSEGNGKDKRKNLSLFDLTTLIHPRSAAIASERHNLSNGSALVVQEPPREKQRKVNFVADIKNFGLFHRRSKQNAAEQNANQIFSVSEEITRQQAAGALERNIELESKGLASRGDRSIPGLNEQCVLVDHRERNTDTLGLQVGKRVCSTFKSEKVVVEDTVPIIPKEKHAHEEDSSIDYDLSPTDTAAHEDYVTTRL

[26] = cytotoxicity in HEK-293T cells, dose response, cytotoxicity control for TCR NF-kB inhibitor project, luminescence, T-cell screen hits (AID 489026); assay type: functional, cell-based;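 note: cells exposed to compound about 14 hours before the viability readout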
[27] = tested on: HEK293; assay: inhibitors of LMP1-driven NF-kB reporter, dose response, cell-based, HEK293, luciferase, cherry-pick (AID 588343); assay type: functional; settings: Homo sapiens
[28] = inhibitors of intracellular T. cruzi replication, confirmation, NIH3T3 host cells, beta-gal luminescence (AID 2044); assay type: functional, cell-based;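 note: intracellular parasites grown in NIH/3T3 mouse fibroblasts as host cells; luminescent beta-galactosidase reporter signal from transgenic T. cruzi replicating inside host cells; inhibitors lower the luminescence signal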
[29] = cytotoxicity toward NIH3T3 fibroblasts, dose response, counter-screen, cell-based, ATP luminescence, mouse fibroblasts (AID 2010); assay type: functional;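 note: cells exposed to compound for about 90 hours before reading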

Chain of Melanocortin receptor 4 (P32245 whole entry): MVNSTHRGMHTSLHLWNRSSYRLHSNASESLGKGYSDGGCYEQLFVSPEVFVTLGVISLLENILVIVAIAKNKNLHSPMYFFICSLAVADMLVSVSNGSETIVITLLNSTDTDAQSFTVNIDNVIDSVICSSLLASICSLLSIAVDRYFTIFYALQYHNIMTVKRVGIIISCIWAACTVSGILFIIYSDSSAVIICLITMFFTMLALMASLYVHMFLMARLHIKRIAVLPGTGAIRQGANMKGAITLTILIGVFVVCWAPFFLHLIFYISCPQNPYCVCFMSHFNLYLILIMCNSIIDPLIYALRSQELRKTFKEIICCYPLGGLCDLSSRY
Chain of Glucose-6-phosphate 1-dehydrogenase (P11413 whole entry): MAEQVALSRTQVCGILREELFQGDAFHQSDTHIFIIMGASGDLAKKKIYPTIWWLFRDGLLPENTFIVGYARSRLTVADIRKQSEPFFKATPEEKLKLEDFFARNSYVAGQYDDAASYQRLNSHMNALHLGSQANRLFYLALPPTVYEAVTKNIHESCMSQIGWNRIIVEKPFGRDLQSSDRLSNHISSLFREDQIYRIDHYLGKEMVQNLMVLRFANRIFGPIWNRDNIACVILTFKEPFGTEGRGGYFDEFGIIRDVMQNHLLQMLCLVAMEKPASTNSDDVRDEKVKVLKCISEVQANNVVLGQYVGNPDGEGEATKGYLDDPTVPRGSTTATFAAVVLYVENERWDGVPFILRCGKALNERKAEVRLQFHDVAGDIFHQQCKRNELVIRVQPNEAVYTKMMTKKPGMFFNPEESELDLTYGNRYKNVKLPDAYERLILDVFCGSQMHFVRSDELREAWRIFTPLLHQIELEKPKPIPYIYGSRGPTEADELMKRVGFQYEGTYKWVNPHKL
T3 sequence (P98170 whole entry): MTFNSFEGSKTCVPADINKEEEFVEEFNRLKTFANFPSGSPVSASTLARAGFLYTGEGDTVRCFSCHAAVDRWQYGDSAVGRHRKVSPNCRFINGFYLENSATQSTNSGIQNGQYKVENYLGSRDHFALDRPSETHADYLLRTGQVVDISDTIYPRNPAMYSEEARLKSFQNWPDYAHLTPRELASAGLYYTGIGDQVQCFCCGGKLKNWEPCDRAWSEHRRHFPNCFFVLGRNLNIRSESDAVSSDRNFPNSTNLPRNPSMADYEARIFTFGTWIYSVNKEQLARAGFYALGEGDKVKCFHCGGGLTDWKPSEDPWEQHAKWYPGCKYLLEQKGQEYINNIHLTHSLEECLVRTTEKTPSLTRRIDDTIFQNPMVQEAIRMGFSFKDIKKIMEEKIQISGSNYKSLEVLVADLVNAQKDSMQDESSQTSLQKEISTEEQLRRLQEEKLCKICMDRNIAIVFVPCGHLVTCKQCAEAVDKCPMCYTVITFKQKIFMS
Chain of Protein Wnt-3a (P27467 whole entry): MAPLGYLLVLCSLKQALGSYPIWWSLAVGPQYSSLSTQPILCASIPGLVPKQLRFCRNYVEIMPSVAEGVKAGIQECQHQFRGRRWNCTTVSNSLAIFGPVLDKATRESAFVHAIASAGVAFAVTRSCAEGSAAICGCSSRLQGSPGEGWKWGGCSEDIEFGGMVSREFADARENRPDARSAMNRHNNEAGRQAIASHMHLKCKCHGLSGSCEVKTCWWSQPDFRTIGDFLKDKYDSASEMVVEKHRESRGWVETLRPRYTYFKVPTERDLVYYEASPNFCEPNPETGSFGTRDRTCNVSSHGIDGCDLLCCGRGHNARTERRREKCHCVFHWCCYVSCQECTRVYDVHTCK
Chain of FAD-linked sulfhydryl oxidase ALR (P55789 whole entry): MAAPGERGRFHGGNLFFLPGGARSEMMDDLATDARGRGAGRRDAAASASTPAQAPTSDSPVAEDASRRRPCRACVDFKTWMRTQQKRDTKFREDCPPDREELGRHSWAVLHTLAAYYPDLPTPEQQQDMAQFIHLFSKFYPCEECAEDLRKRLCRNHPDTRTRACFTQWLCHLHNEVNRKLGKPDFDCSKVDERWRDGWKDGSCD
Chain of Luciferin 4-monooxygenase (P08659 whole entry): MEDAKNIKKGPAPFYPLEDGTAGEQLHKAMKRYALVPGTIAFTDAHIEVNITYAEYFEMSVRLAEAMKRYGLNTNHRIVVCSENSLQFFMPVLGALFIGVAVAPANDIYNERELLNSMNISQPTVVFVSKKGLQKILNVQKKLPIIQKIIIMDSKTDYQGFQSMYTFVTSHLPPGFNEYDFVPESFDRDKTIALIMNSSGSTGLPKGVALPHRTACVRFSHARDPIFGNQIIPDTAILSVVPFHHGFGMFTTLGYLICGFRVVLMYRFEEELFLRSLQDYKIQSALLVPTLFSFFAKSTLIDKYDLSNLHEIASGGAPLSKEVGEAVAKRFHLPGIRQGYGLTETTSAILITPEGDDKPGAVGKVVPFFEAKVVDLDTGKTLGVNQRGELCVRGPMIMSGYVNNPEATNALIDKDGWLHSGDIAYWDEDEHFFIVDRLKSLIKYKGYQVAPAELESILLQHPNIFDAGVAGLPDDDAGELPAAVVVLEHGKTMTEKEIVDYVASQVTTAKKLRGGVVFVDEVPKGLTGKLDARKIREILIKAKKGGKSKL

COc1cccc2[nH]c3c(Cl)ncnc3c12
CC50 [1]: 33.9 µM (active) | IC50 [2]: > 50 µM (active) | IC50 [3]: > 64.6 µM (inactive) | IC50 [4]: > 64.6 µM (inactive)

C(=N\Nc1nc2ccccc2[nH]1)/c1ccccn1
EC50 [5]: 72.9 µM (active) | IC50 [6]: > 80 µM (inactive) | EC50 [7]: 4.15 µM (active) | EC50 [8]: 1.29 µM (active) | EC50 [9]: 5.82 µM (active) | EC50 [10]: 1.16 µM (active) | EC50 [11]: 1.99 µM (active) | EC50 [12]: 41.7 µM (active)

CN1C(=O)/C(=C\c2ccc(N3CCCCCC3)cc2)C(=O)NC1=S
CC50 [13]: 17.9 µM (active)

O=C(NCc1cccnc1)c1ccc(-c2cc3ccccc3oc2=O)cc1
EC50 [14]: 3.16 µM (active) | EC50 [15]: > 150 µM (not active) | EC50 [16]: 22.6 µM (active) | AC50 [17]: 3.61 µM (active) | EC50 [11]: 6.49 µM (active) | EC50 [18]: 11.8 µM (inconclusive)

COC(=O)c1cc(S(=O)(=O)N2CCC(c3cc(OC)ccc3OC)C2)c[nH]1 (configuration not stated)
IC50 [19]: 7.87 µM (active)

CCn1/c(=N/c2ccc(N3CCOCC3)cc2)ccc2ccccc21
IC50 [20]: > 100 µM (inactive) | IC50 [21]: > 100 µM (not active)

C/C(=C\[C@@H](NP(=O)(c1ccccc1)c1ccccc1)c1ccccc1)CO[Si](c1ccccc1)(c1ccccc1)C(C)(C)C
CC50 [13]: > 25 µM (active)

O=[N+]([O-])c1ccc(O)c(/C=N/n2c(S)nnc2-c2ccccc2)c1
AC50 [22]: 7.9 µM (active)

Cc1cc(C)nc(/N=C(\N)NCCc2ccccc2)n1
IC50 [6]: > 80 µM (inactive)

Cc1ccc(S(=O)(=O)N(C)C)cc1NC(=S)NC12CC3CC(CC(C3)C1)C2
IC50 [20]: > 100 µM (inactive) | IC50 [21]: > 100 µM (not active)

COc1ccc(C(=O)Nc2nc(-c3cccs3)c(NC(C)=O)s2)cc1
IC50 [20]: > 100 µM (inactive) | IC50 [21]: > 100 µM (not active)

COc1cc(/C=C2\SC(N3CCC(C)CC3)=NC2=O)ccc1O
AC50 [23]: 0.929 µM (active) | IC50 [24]: 16.3 µM (active) | AC50 [22]: 2.68 µM (active) | EC50 [25]: 3.35 µM (active)

O=C(CCl)N(CCCNC(=O)C(F)(F)F)c1ccc([N+](=O)[O-])cc1
EC50 [14]: 11.6 µM (inconclusive) | EC50 [15]: 4.66 µM (active) | EC50 [16]: 2.53 µM (inconclusive) | EC50 [11]: 0.995 µM (active) | EC50 [18]: 4.39 µM (active)

Cc1nn(-c2ccc(NC(=O)c3ccncc3)cc2)c(C)c1Cl
IC50 [19]: 3 µM (active)

CCOC(=O)c1[nH]c2c(c1C)C(=O)CC(c1ccc(F)cc1)C2 (configuration not stated)
IC50 [26]: > 80 µM (inactive)

COc1ccc(-n2c(SC3CCOC3=O)nc3ccccc32)cc1 (configuration not stated)
IC50 [3]: > 64.6 µM (inactive) | IC50 [4]: > 64.6 µM (inactive)

COc1cccc(C(=O)N2CCN(c3nc4cc(C)cc(C)c4cc3C#N)CC2)c1
AC50 [27]: 194 µM (active)

COC(=O)c1c(NC(=O)CC2SCC(C(=O)OC)NC2=O)sc2c1CCCC2 (configuration not stated)
IC50 [3]: > 64.6 µM (inactive) | IC50 [4]: > 64.6 µM (inactive)

CCN(CC)C(=O)c1c(C)[nH]c(=S)c(C#N)c1-c1ccco1
IC50 [6]: > 80 µM (inactive)

CSc1cccc(NC(=O)c2c(Cl)cnn2C)c1
AC50 [22]: 7.08 µM (active)

CCOC(=O)CCc1c(C)c2ccc(O)cc2oc1=O
IC50 [20]: > 100 µM (inactive) | IC50 [21]: > 100 µM (not active)

CCCCCCCOc1ccc(OC(=O)c2cccnc2)cc1
EC50 [28]: 1.89 µM (active) | IC50 [26]: > 80 µM (inactive) | EC50 [29]: 4.45 µM (active)
